According to patent publication US20200330400A1, “METHODS FOR THE TREATMENT OF CANCER USING COENZYME Q10 AND FATTY ACID METABOLISM INHIBITORS” (Berg LLC, priority 2016, published 2020):

Tests used:
[1] = test system: MDA-MB231 breast cancer cells; assay: Cell viability of MDA-MB231 breast cancer cells exposed to Coenzyme Q10 alone or with fatty acid metabolism inhibitors; type: cell-based, human; settings: for Sensitivity of cells to Coenzyme Q10 when treated in combination (shift of Coenzyme Q10 dose-response curve): MDA-MB231, co-treatment with named agent
Procedure: (§1) Cell viability was assessed in MDA-MB231 and SkBr-3 breast cancer cells exposed to Coenzyme Q10 alone or in combination with the fatty acid metabolism inhibitors C75, etomoxir, and trimetazidine, as well as a more pleiotropic fatty acid metabolism modulator, metformin. […] Metformin is used clinically as an anti-diabetic agent to suppress glucose production by the liver; however, the mechanism of action remains incompletely understood.
(§2) Coenzyme Q10 was applied to the cells in a 4% Coenzyme Q10 nanosuspension formulation (as described in WO 2011/112900, the entire contents of which are expressly incorporated herein by reference) comprising a phosphatidylcholine (e.g., dimyristoylphosphatidyl choline (DMPC)).

[2] = test system: SKBr-3 breast cancer cells; assay: Cell viability of SKBr-3 breast cancer cells exposed to Coenzyme Q10 alone or with fatty acid metabolism inhibitors; type: cell-based; settings: for Sensitivity of cells to Coenzyme Q10 when treated in combination (shift of Coenzyme Q10 dose-response curve): SkBr-3, co-treatment with named agent
Procedure: as §1, §2

[3] = test system: MIA PaCa-2 pancreatic cancer cells; assay: Cell viability of MIA PaCa-2 pancreatic cancer cells exposed to Coenzyme Q10 alone or with fatty acid metabolism inhibitors; type: cell-based; settings: for Sensitivity of cells to Coenzyme Q10 when treated in combination (reduced viability): co-treatment with named agent
From the text: Cell viability was next assessed in MIA PaCa-2 pancreatic cancer cells exposed to Coenzyme Q10 alone or in combination with the fatty acid metabolism inhibitors C75, etomoxir, trimetazidine, metformin, and the Stearoyl-CoA desaturase-1 (SCD-1) inhibitor A939572. […] SCD-1 is an endoplasmic reticulum enzyme that catalyzes the formation of the monounsaturated fatty acids oleic acid and palmitoleic acid from stearoyl-CoA and palmitoyl-CoA. Oleic acid and palmitoleic acid are major components of membrane phospholipids, cholesterol esters and alkyl-diacylglycerol. Thus SCD-1 is a key enzyme in fatty acid metabolism. Inhibition of SCD-1 results in depletion of mono-unsaturated fatty acids and reduction of lipid storage.

[4] = test system: fatty acid metabolism genes FASN, CPT1, ACSL1 and DGAT1; assay: mRNA expression of fatty acid metabolism genes in MDA-MB231 cells treated with Coenzyme Q10; type: cell-based, human; settings: Coenzyme Q10 alone
From the text: FASN catalyzes the synthesis of the fatty acid palmitate (C16:0, a long-chain saturated fatty acid) from acetyl-CoA and malonyl-CoA, in the presence of NADPH. CPT-1 is a mitochondrial enzyme responsible for the formation of acyl carnitines by catalyzing the transfer of the acyl group of a long-chain fatty acyl-CoA from coenzyme A to l-carnitine. CPT-1 mediated formation of acyl carnitine allows for subsequent movement of the acyl carnitine from the cytosol into the intermembrane space of mitochondria. ACSL1 activates the degradation of complex fatty acids. Specifically, this enzyme catalyzes the formation of fatty acyl-CoA by a two-step process proceeding through an adenylated intermediate. DGAT1 catalyzes the formation of triglycerides from diacylglycerol and Acyl-CoA. The reaction catalyzed by DGAT is considered the terminal and only committed step in triglyceride synthesis and to be essential for the formation of adipose tissue.

[5] = test system: MDA-MB231 breast cancer cells; assay: Free glycerol, DAG and TAG content in MDA-MB231 cells treated with Coenzyme Q10; type: cell-based, human; settings: Coenzyme Q10 treatment
From the text: FIGS. 6B and 6C show diacylglyceride (DAG) (B), and triacylglyceride (TAG) content (C) in MDA-MB231 breast cancer cells treated with Coenzyme Q10.
To further evaluate the effect of Coenzyme Q10 on cancer cell lipid composition, structural lipidomic analysis was used to assess the metabolic fate of the lipid components of the Coenzyme Q10 formulation itself, such as DMPC. DMPC is a 14:0 lipid which is not found endogenously in human cells. Accordingly, it was possible to distinguish between DMPC-containing species based on the length of the fatty acid chains, e.g. 28:0 DAG and 42:0 TAG are not found endogenously. […] Accordingly, cancer cells treated with lipid-containing formulations may be especially sensitive to fatty acid metabolism inhibitors, due to the increased fatty acid metabolism activity resulting from storage and degradation of the lipid formulation components.

| Compound | Sensitivity of cells to Coenzyme Q10 when treated in combination (shift of Coenzyme Q10 dose-response curve) [1] | Sensitivity of cells to Coenzyme Q10 when treated in combination (shift of Coenzyme Q10 dose-response curve) [2] | Sensitivity of cells to Coenzyme Q10 when treated in combination (reduced viability) [3] | further results |
| --- | --- | --- | --- | --- |
| CCOC(=O)C1(CCCCCCOc2ccc(Cl)cc2)CO1 (stereo not shown) [Etomoxir, 2-(6-(4-chlorophenoxy)-hexyl)-oxirane-2-carboxylic acid ethyl ester] | more sensitive to Coenzyme Q10 | more sensitive to Coenzyme Q10 | more sensitive to Coenzyme Q10 |  |
| CNC(=O)c1cccc(NC(=O)N2CCC(Oc3ccccc3Cl)CC2)c1 [A939572] |  |  | more sensitive to Coenzyme Q10 |  |
| CN(C)C(=N)N=C(N)N [Metformin] | did not alter cytotoxic responses to Coenzyme Q10 | did not alter cytotoxic responses to Coenzyme Q10 | more sensitive to Coenzyme Q10 | Cell viability ([3]; Coenzyme Q10 and 0.5 mM metformin): lower viability than cells treated with Coenzyme Q10 alone; Cell viability ([3]; Coenzyme Q10 and 1 mM or 5 mM metformin): lower viability than cells treated with Coenzyme Q10 and 0.5 mM metformin |
| COc1ccc(CN2CCNCC2)c(OC)c1OC [Trimetazidine] | more sensitive to Coenzyme Q10 | more sensitive to Coenzyme Q10 | more sensitive to Coenzyme Q10 |  |
| COC1=C(OC)C(=O)C(C/C=C(\C)CC/C=C(\C)CC/C=C(\C)CC/C=C(\C)CC/C=C(\C)CC/C=C(\C)CC/C=C(\C)CC/C=C(\C)CC/C=C(\C)CCC=C(C)C)=C(C)C1=O [Coenzyme Q10] |  |  |  | EC50 ([1]; EC50 of Coenzyme Q10 (4% nanosuspension) alone or plus named inhibitor, inhibitor concentration not in table (FIGS. 1-4: C75 5 μM, Etomoxir 50 μM, Trimetazidine 375 μM, metformin 500 μM)): 165 µM; EC50 ([2]; EC50 of Coenzyme Q10 (4% nanosuspension) alone or plus named inhibitor, inhibitor concentration not in table): 599 µM; EC50 ([3]; Coenzyme Q10 alone (A939572 experiment, FIG. 10)): 142 µM; EC50 ([3]; Coenzyme Q10 alone (metformin experiment, FIG. 8)): 261 µM; EC50 ([3]; Coenzyme Q10 alone or with Etomoxir 100 μM, C75 10 μM or Trimetazidine 250 μM (FIG. 9)): 284 µM; mRNA expression of FASN, CPT-1, ACSL1 and DGAT1 [4]: dose- and time-dependent increase in mRNA expression; Diacylglyceride (DAG), triacylglyceride (TAG) and glycerol content [5]: accumulation of diacylglyceride (DAG), triacylglyceride (TAG) and the triglyceride backbone, glycerol |
| C=C1C(=O)OC(CCCCCCCC)C1C(=O)O (stereo not shown) [C75] | more sensitive to Coenzyme Q10 | more sensitive to Coenzyme Q10 | more sensitive to Coenzyme Q10 |  |
